From article PMC2848298 (Bioorganic & medicinal chemistry letters, 2010)
Where two headings read alike, the source gives them in different places.

Columns and labels:
[1] = molecular target: T1, ABCG2 (Homo sapiens, UniProt Q9UNQ0); assay: Cellular accumulation of the ABCG2 substrate pheophorbide-a; details: PhA accumulation assay
T1 sequence (Q9UNQ0 1-655): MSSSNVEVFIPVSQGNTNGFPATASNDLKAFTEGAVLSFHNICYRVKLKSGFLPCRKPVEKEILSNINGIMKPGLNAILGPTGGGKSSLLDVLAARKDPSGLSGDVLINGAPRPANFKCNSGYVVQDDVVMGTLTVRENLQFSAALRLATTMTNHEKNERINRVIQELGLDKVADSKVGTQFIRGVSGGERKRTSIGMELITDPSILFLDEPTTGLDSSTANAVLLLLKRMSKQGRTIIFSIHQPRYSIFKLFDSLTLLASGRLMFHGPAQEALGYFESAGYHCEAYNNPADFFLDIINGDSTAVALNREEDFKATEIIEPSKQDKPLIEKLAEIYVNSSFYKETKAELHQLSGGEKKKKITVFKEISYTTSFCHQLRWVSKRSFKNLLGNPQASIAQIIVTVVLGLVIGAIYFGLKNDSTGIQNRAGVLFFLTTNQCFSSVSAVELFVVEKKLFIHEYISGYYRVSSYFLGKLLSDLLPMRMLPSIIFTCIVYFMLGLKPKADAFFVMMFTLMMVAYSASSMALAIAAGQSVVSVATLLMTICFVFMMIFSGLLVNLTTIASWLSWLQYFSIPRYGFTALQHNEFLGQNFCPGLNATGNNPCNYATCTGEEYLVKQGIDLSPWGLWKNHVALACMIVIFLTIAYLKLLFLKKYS

[2] = system: P-glycoprotein (P-gp); details: cited from earlier work
[3] = molecular target: T1, ABCG2

Row | Compound | ABCG2 inhibitory activity (in words) [1] | other results
1 | O=C(/C=C/c1ccc(O)cc1)N/C=C/c1ccc(O)cc1 [compound 18] |  | ABCG2 inhibitory activity (in words) ([1]; at 100 μM): inactive
2 | CO/C(=C\c1ccc(O)cc1)C(=O)N/C=C/c1cc(Br)c(O)c(Br)c1 [botryllamide G] |  | Inhibition of efflux of rhodamine out of P-gp-overexpressing cells ([2]; at 50 μM): not the efflux of rhodamine
3 | 2-methoxy-p-coumaric acid [compound 8] |  | ABCG2 inhibitory activity (in words) [3]: inactive
4 | CO/C(=C\c1cc(Br)c(O)c(Br)c1)C(=O)N/C=C/c1ccc(O)cc1 [compound 22] | observed inhibitory activity | 
5 | CO/C(=C\c1ccc(O)cc1)C(=O)N/C=C/c1cc(Br)c(OC)c(Br)c1 [botryllamide A, reference compound] |  | Inhibition of export of rhodamine by P-gp [2]: inhibited the export of rhodamine

Now from value to compound, other results behind:

Row | ABCG2 inhibitory activity (in words) [1] | Compound | other results
6 | retained inhibitory activity | CO/C(=C\c1ccc(O)c(O)c1)C(=O)N/C=C/c1ccc(O)cc1 [compound 21] | 
7 | inactive | CO/C(=C\c1ccc(O)cc1)C(=O)NCC(O)c1ccc(O)cc1 (centres unmarked) [compound 9] | 
8 | observed inhibitory activity | CO/C(=C\c1cc(Br)c(O)c(Br)c1)C(=O)N/C=C/c1ccc(OC(C)=O)cc1 [compound 23] | 
